# Read-outs that look alike come from different tables or passages of the source.
# How the values were obtained:
# [1] = system: T1, tubulin; test: Inhibition of [3H]colchicine binding to tubulin; conditions: tubulin 1.0 μM, [3H]colchicine 5.0 μM
# T1 construct: other: tubulin 10 μM; extent of assembly measured; asterisk: rate but not ex; tubulin 1.0 μM; [3H]colchicine; [3H]colchicin
# [2] = system: Burkitt lymphoma CA46 cells; test: Inhibition of CA46 cell growth; format: cell-based; conditions: Homo sapiens
# [3] = system: tubulin; conditions: background statement, literature; cited from earlier work
# [4] = system: T1, tubulin; test: Inhibition of tubulin polymerization; format: biochemical; conditions: tubulin 10 μM; extent of assembly measured; asterisk: rate but not extent inhibited up to 40 μM
# [5] = system: MCF-7 human breast carcinoma cell line; test: Inhibition of MCF-7 cell growth; format: cell-based
# [6] = CA46, read-out: Inhibition of CA46 cell growth IC50
melting point [°C],SMILES,"Inhibition of colchicine binding (% inhibition), 5 μM inhibitor [1] [%]",IC50 [4] [µM],further results
,"COc1ccc(/C=C\c2cc(OC)c(OC)c(OC)c2)cc1O [(A), Combretastatin A4, reference compound]",91,,"IC50 ([2]; Burkitt lymphoma CA46 cells, read-out: Inhibition of CA46 cell growth IC50): 0.001 µM"
,COc1ccc2[nH]c(-c3ccc4c(c3)OCO4)c(-c3cc(OC)c(OC)c(OC)c3)c2c1 [(C)],,,tubulin binding activity [3]: moderate
,COc1ccc(-c2oc3cc(O)c(OC)cc3c2-c2cc(OC)c(OC)c(OC)c2)cc1O [(D)],,,tubulin binding activity [3]: did not exhibit tubulin binding activity
,COc1ccc2c(C(O)c3ccc(OC)c(O)c3)c(-c3cc(OC)c(OC)c(OC)c3)sc2c1 (centres unmarked) [BLF-34-3],5,6.1 ± 0.8,"Inhibition of colchicine binding (% inhibition), 50 μM inhibitor [1]: 73%; IC50 [2, 6]: > 1 µM"
98 to 99,"COc1ccc2c(-c3cc(OC)c(OC)c(OC)c3)c(-c3ccc(OC)c(O)c3)[nH]c2c1 [BLF-61-3, 6-Methoxy-2-(3-hydroxy-4-methoxyphenyl)-3-(3,4,5-trimethoxyphenyl)indole]",,,
68 to 69,"COc1ccc2c(C(=O)c3cc(OC)c(OC)c(OC)c3)c(-c3ccc(OC)c(O)c3)oc2c1 [BLF-62-3, 6-Methoxy-2-(3-hydroxy-4-methoxyphenyl)-3-(3,4,5-trimethoxybenzoyl)benzo bifuran]",,,
53 to 54,COc1ccc(-c2oc3cc(OC)ccc3c2C(O)c2cc(OC)c(OC)c(OC)c2)cc1 (centres unmarked) [BLF-68-3],,,
68 to 69,"COc1ccc2c(C(O)c3cc(OC)c(OC)c(OC)c3)c(-c3ccc(OC)c(O)c3)oc2c1 (stereo not drawn) [BLF-69-3, 6-Methoxy-2-(3-hydroxy-4-methoxyphenyl)-3-[α-hydroxy-α-(3,4,5-trimethoxyphenyl)methyl]benzo[b]furan]",,,
121 to 122,"COc1ccc(-c2oc3cc(OC)ccc3c2Cc2cc(OC)c(OC)c(OC)c2)cc1 [BLF-70-3, 6-Methoxy-2-(4-methoxyphenyl)-3-(3,4,5-trimethoxybenzyl)benzo[b]furan]",,,
123 to 125,"COc1ccc2c(C(=O)c3cc(OC)c(OC)c(OC)c3)c(-c3ccc(OC)c(O)c3)sc2c1 [BLF-86-1, 2-(3′-Hydroxy-4′-methoxyphenyl)6-methoxy-3-(3″,4″,5″-trimethoxybenzoyl)benzo[b]thiophene]",,,
,"COc1ccc(C2=C(C(=O)c3cc(OC)c(OC)c(OC)c3)C(=O)c3cc(OC)c(OC)c(OC)c32)cc1O [DK-12a-1, 3-(3′-Hydroxy-4′-methoxyphenyl)-4,5,6-trimethoxy-2-(3′,4″,5″-trimethoxybenzoyl)indenone]",,10 to 40,
,"COc1ccc(C2=C(c3cc(OC)c(OC)c(OC)c3)CCS2)cc1OC(C)=O [GPF-60-1, 2-(3′-acetoxy-4′-methoxyphenyl)-4,5-dihydro-3-(3″,4″,5″-trimethoxyphenyl)thiophene]",64,3.6 ± 1,"Inhibition of colchicine binding (% inhibition), 50 μM inhibitor [1]: 88%; IC50 ([5]; Homo sapiens, MCF7, read-out: Inhibition of cell growth IC50 (MCF-7)): 0.39 µM"
,"COc1ccc(C(=O)c2cc3cc(O)c(OC)cc3s2)cc1O [KH-2-2, 5-Hydroxy-2-(3′-hydroxy-4′-methoxybenzoyl)-6-methoxybenzo[b]thiophene]",,2.4 ± 0.4,

SMILES,melting point [°C],"Inhibition of colchicine binding (% inhibition), 5 μM inhibitor [1] [%]",IC50 [4] [µM],further results
"COc1ccc(-c2sc3cc4c(cc3c2C(=O)c2cc(OC)c(OC)c(OC)c2)OCO4)cc1O [BLF-53-3, 2-(3′-Hydroxy-4′-methoxyphenyl)-5,6-methylendioxy-3-(3″,4″,5″-trimethoxybenzoyl)benzo[b]thiophene]",156 to 157,2,> 40,"Inhibition of colchicine binding (% inhibition), 50 μM inhibitor [1]: 31%; IC50 [2, 6]: > 1 µM"
COc1ccc(-c2sccc2C(=O)c2cc(OC)c(OC)c(OC)c2)cc1O [BLF-89-3],151 to 152,67,1 ± 0.1,"IC50 ([5]; MCF7, MCF-7 human breast carcinoma cell line, read-out: Inhibition of cell growth IC50 (MCF-7)): 0.3 µM"

# Reference: patent US20050130221A1, “Synthesis for the preparation of compounds for screening as potential tubulin binding agents” (The Australian National University, priority 2001, published 2005)
